Data from the supplement of paper PMC10307832.

Key:
Assay in all cases: relative viability (nuclei count vs DMSO), 5 days (fraction); higher = more cells survive
[1] = compound: COC1=CC=C(C=C1)CN2C=CC3=C2C=C(C=C3)C(=O)NO + CS(=O)(=O)CCNCc1ccc(-c2ccc3ncnc(Nc4ccc(OCc5cccc(F)c5)c(Cl)c4)c3c2)o1 [Lapatinib] (partner 2 µM)
Summary of the method: (§1)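 After 5 days of treatment, lung cancer cells in 1536-well plates were fixed and stained in a single step (final 0.05% Triton X-100, 1% formaldehyde, 1 ug/ml Hoechst) and their nuclei counted on 4× images. Treatment had been applied by pin tool the day after seeding as one drug alone or as a fixed anchor-drug dose with five library-drug doses (not always all listed) in √10 steps. Relative viability is the nuclei count of treated wells divided by that of vehicle wells, and values are medians of duplicate plates.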

[2] = compound: COC1=CC=C(C=C1)CN2C=CC3=C2C=C(C=C3)C(=O)NO + CS(=O)(=O)N1CCN(Cc2cc3nc(-c4cccc5[nH]ncc45)nc(N4CCOCC4)c3s2)CC1 [Pictilisib] (partner 1 µM)
Summary of the method: as §1

Veliparib + Lapatinib = compound: C[C@]1(c2nc3c(C(N)=O)cccc3[nH]2)CCCN1 [Veliparib] + CS(=O)(=O)CCNCc1ccc(-c2ccc3ncnc(Nc4ccc(OCc5cccc(F)c5)c(Cl)c4)c3c2)o1 [Lapatinib] (partner 2 µM)
Summary of the method: as §1

Veliparib + Alpelisib = compound: C[C@]1(c2nc3c(C(N)=O)cccc3[nH]2)CCCN1 [Veliparib] + Cc1nc(NC(=O)N2CCC[C@H]2C(N)=O)sc1-c1ccnc(C(C)(C)C(F)(F)F)c1 [Alpelisib] (partner 2 µM)
Summary of the method: as §1

Row | Cell Line | relative viability ([1]; first compound 0.08 µM) | relative viability ([1]; first compound 0.253 µM) | relative viability ([1]; first compound 0.8 µM) | relative viability ([1]; first compound 2.53 µM) | relative viability ([1]; first compound 8 µM) | relative viability ([2]; first compound 0.08 µM) | relative viability ([2]; first compound 0.253 µM) | relative viability ([2]; first compound 0.8 µM) | relative viability ([2]; first compound 2.53 µM) | relative viability ([2]; first compound 8 µM) | relative viability (Veliparib + Lapatinib; first compound 0.06325 µM) | relative viability (Veliparib + Lapatinib; first compound 0.2 µM) | relative viability (Veliparib + Lapatinib; first compound 0.6325 µM) | relative viability (Veliparib + Lapatinib; first compound 2 µM) | relative viability (Veliparib + Alpelisib; first compound 0.06325 µM) | relative viability (Veliparib + Alpelisib; first compound 0.2 µM) | relative viability (Veliparib + Alpelisib; first compound 0.6325 µM) | relative viability (Veliparib + Alpelisib; first compound 2 µM) | relative viability (Veliparib + Lapatinib; first compound 0.02 µM) | relative viability (Veliparib + Alpelisib; first compound 0.02 µM)
1 | LC-2-ad | 0.259 | 0.948 | 0.972 | 0.931 | 0.92 | 0.437 | 0.597 | 0.547 | 0.439 | 0.427 | 0.813 | 0.967 | 0.94 | 0.951 | 0.783 | 0.846 | 0.926 | 0.897 | – | –
2 | LOU-NH91 | 0.561 | 0.745 | 0.825 | 0.733 | 0.725 | 0.45 | 0.53 | 0.522 | 0.528 | 0.497 | 0.656 | 0.82 | 0.735 | 0.781 | 0.72 | 0.76 | 0.706 | 0.748 | 0.708 | 0.698
3 | NCI-H727 | 0.775 | 0.927 | 0.868 | 0.942 | 0.915 | 0.344 | 0.299 | 0.553 | 0.306 | 0.488 | 0.759 | 0.9 | 0.876 | 0.734 | 0.572 | 0.598 | 0.538 | 0.488 | 0.388 | 0.512
4 | NCI-H2347 | 0.517 | 0.896 | 1.03 | 1.01 | 0.904 | 0.494 | 0.652 | 0.596 | – | 0.462 | 0.917 | 0.897 | 1.01 | 0.944 | 0.946 | 1.01 | 0.957 | 1.02 | 0.962 | 1.01
5 | NCI-H1993 | 0.639 | 0.857 | 0.843 | 0.864 | 0.741 | 0.717 | 0.0552 | 0.772 | 0.837 | 0.756 | 0.759 | 0.823 | 0.851 | 0.85 | 0.615 | 0.726 | 0.639 | 0.75 | 0.794 | 0.655
6 | HCC-827 | 0.189 | 0.212 | 0.168 | 0.181 | 0.178 | 0.934 | 0.921 | 1.07 | 1.15 | 0.927 | 0.191 | 0.182 | 0.177 | 0.191 | 1.02 | 0.986 | 0.971 | 0.899 | 0.199 | 0.922
7 | NCI-H1975 | 0.691 | 0.845 | 0.832 | 0.875 | 0.78 | 0.304 | 0.297 | 0.281 | 0.299 | 0.252 | 0.765 | 0.831 | 0.873 | 0.911 | 0.657 | 0.685 | 0.605 | 0.632 | 0.843 | 0.64
8 | NCI-H1793 | 0.343 | 0.751 | 0.688 | 0.705 | 0.598 | 0.17 | 0.239 | 0.395 | 0.267 | 0.335 | 0.555 | 0.788 | 0.572 | 0.762 | 0.582 | 0.755 | 0.661 | 0.69 | 0.548 | 0.819
9 | NCI-H1651 | 0.425 | 0.886 | 0.857 | 0.767 | 0.746 | 0.572 | 0.427 | 0.606 | 0.65 | 0.452 | 0.755 | 0.92 | 0.835 | 0.775 | 0.83 | 0.922 | 0.828 | 0.856 | 0.557 | 0.889
10 | NCI-H1755 | 0.715 | 1.07 | 1 | 1.01 | 1.02 | 0.267 | 0.458 | 0.51 | 0.383 | 0.363 | 1 | 1.01 | 0.99 | 0.989 | 0.939 | 0.942 | 0.881 | 0.922 | 1.02 | 0.898
11 | LCLC-103H | – | – | – | – | – | 0.526 | 0.621 | 0.586 | 0.648 | 0.532 | – | – | – | – | 0.896 | 0.936 | 1.06 | 0.949 | – | 1.13
12 | NCI-H1915 | 0.301 | 0.977 | 1.01 | 1 | 0.958 | 0.62 | 0.997 | 1.08 | 0.973 | 0.735 | 0.897 | 0.756 | 0.872 | 0.885 | 1.02 | 0.976 | 0.898 | 0.926 | 0.96 | 1.03
13 | HOP-62 | 0.225 | 1.1 | 1.08 | 0.997 | 0.973 | 0.249 | 0.885 | 0.988 | 0.908 | 0.396 | 0.878 | 0.951 | 0.99 | 1.12 | 0.928 | 1.15 | 0.836 | 0.785 | 1.14 | 1.11
14 | HARA | 0.424 | 0.891 | 0.815 | 0.712 | 0.679 | 0.467 | 0.492 | 0.403 | 0.43 | 0.33 | 0.57 | 0.86 | 0.743 | 0.853 | 0.769 | 0.921 | 0.827 | 0.822 | 0.748 | 0.943
15 | NCI-H520 | 0.425 | 0.891 | 0.943 | 0.886 | 0.803 | 0.265 | 0.266 | 0.314 | 0.276 | 0.271 | 0.859 | 0.912 | 0.733 | 0.858 | 1.06 | 0.859 | 0.791 | 1.03 | 0.986 | 0.882
16 | NCI-H1395 | 0.674 | 0.851 | 0.937 | 0.93 | 0.778 | 0.683 | 0.653 | 0.58 | 0.583 | 0.505 | 0.76 | 0.874 | 0.716 | 0.83 | 1.37 | 0.873 | 1.09 | 0.74 | – | –
17 | NCI-H1792 | 0.867 | 0.906 | 0.824 | 0.915 | 0.836 | 0.301 | 0.314 | 0.297 | 0.326 | 0.209 | 0.719 | 0.962 | 0.983 | 0.832 | 0.592 | 0.799 | 0.65 | 0.645 | 0.922 | 0.678
